Measured values: patent US11186807B2, “Reducing acetate ester production in yeast” (VIB VZW, priority 2017, dated 2021)

Test system: respiration in yeast (S288c and Hybrid A)
Test: Acetate ester production in mini-scale yeast fermentation with or without Antimycin A
Format: cell-based, Saccharomyces cerevisiae
Settings: 3 mg/L Antimycin A in medium; genetic backgrounds S288c and Hybrid A; FIG. 7B
Description: One of the main functions of the IMP complex is processing of subunits of the respiration chain. Given the surprising finding that genetic inference with the IMP complex reduces the production of acetate esters (see Example 5 and 8), we wondered whether respiration in general modulates acetate ester production. First, yeasts strains were developed in which five genes known to be crucial for respiration (i.e. CBS1, COR1, COX9, QCR9 and COX12) were separately deleted and subsequently were used in a fermentation experiment to determine aroma production. All selected genes function independently from the IMP complex. […] More precisely, an experiment was performed in which acetate ester production of a yeast strain was measured in medium with or without supplementation of 3 mg/L Antimycin A, a chemical compound blocking the respiratory pathway (Kim et al 1999 J Am Chem Soc 121:4902). […]
Phenotyping of the individual segregants for IA production was performed using an in situ approach, and was conducted as follows: the segregants were streaked from the −80° C. stock on YPGlu 2% agar plates for 48 h at 30° C. […] After 96 h, the fermentation was ended, excess CO2 was once again released by brief opening of the vials, and the vials were measured using gas chromatography (see further). […]

Antimycin A
drop of isoamyl acetate production: about 50%
